Literature values, collected in patent US12203859B2, “Device for detecting contamination with photosynthesis inhibitor and method for detecting contamination with photosynthesis inhibitor” (National Institute for Environmental Studies, priority 2019, dated 2025).

System: marine phytoplankton
Conditions: pesticides that directly inhibit photosynthesis of plants

SMILES: CN(C)C(=O)Nc1ccc(Cl)c(Cl)c1 [Diuron]
- fluorescence quantum efficiency of marine phytoplankton: decreases

SMILES: CSc1nc(NC2CC2)nc(NC(C)(C)C)n1 [Irgarol]
- fluorescence quantum efficiency of marine phytoplankton: decreases
